Key:
[1] = logP determination by HPLC on reversed-phase column (C18), EEC Directive 79/831 Annex V.A8; format: physicochemical; details: reversed-phase C18, acetonitrile/water with formic acid; for chromatographic logP: reversed-phase C18 HPLC column
[2] = test system: two-spotted spider mite (Tetranychus urticae); assay: Tetranychus urticae spray test; OP-resistant (bean plants); format: in vivo; details: after 7 days
[3] = test system: fall armyworm larvae (Spodoptera frugiperda); assay: Spodoptera frugiperda spray test (maize leaf sections); format: in vivo; details: 100 g/ha, after 7 days
Source text: Spodoptera frugiperda—Spray Test
(§1) Solvent: 78.0 parts by weight acetone
(§2) • 1.5 parts by weight dimethylformamide Emulsifier: alkylarylpolyglycol ether
Maize (Zea mays) leaf sections are sprayed with a preparation of the active ingredient of the desired concentration. Once dry, the leaf sections are infested with fall armyworm larvae (Spodoptera frugiperda).

[4] = test system: adult engorged female ticks (Boophilus microplus); assay: Boophilus microplus injection test (BOOPMI Inj); format: in vivo; details: 20 μg/animal, egg deposition after 7 days
Protocol: Boophilus microplus—Injectiontest (BOOPMI Inj)
(§3) Solvent: dimethyl sulfoxide
Five adult engorged female ticks (Boophilus microplus) are injected with 1 μl compound solution into the abdomen. The ticks are transferred into replica plates and incubated in a climate chamber.
(§4) After 7 days egg deposition of fertile eggs is monitored. Eggs where fertility is not visible are stored in a climate chamber till hatching after about 42 days. An efficacy of 100% means all eggs are infertile; 0% means all eggs are fertile.

[5] = test system: cattle ticks (Boophilus microplus) strane Parhurst, SP-resistant; assay: Boophilus microplus dip test (BOOPMI Dip); format: in vivo; details: 100 ppm, egg deposition after 7 days
Source text: Boophilus microplus—Diptest (BOOPMI Dip)
Test animal: cattle ticks (Boophilus microplus) strane Parhurst, SP-resistant
as §3
This compound solution is pipetted into tubes. 8-10 engorged, adult, female cattle ticks (Boophilus microplus) are placed in perforated tubes. These tubes are immersed in the aqueous compound solution until the ticks are completely moistened. After the liquid has drained off, the ticks are transferred to a filter paper in a plastic tray and stored in a climate chamber.
as §4

[6] = test system: adult house flies (Musca domestica); assay: Musca domestica test (MUSCDO); format: in vivo; details: 100 ppm, after 2 days
Source text: Musca domestica—Test (MUSCDO)
as §3
10 adult house flies (Musca domestica) are transferred into a container, containing a sponge soaked with a mixture of sugar solution and compound solution of the desired concentration.

[7] = test system: Tick nymphs (Amblyomma hebraeum); assay: Amblyomma hebraeum test (AMBYHE); format: in vivo; details: 100 ppm, after 42 days
Protocol: Amblyomma hebraeum—Test (AMBYHE)
as §3
Tick nymphs (Amblyomma hebraeum) are placed in perforated plastic beakers and immersed in the aqueous compound solution for one minute. Ticks are transferred to a filter paper in a petridish and incubated in a climate chamber.

[8] = test system: adult cat fleas (Ctenocephalides felis); assay: Ctenocephalides felis in-vitro contact test, adult cat flea; format: in vivo; details: 5 μg/cm^2 (=500 g/ha), after 48 hours
Protocol: Ctenocephalides felis—In-Vitro Contact Tests Adult Cat Flea
(§5) 9 mg compound is solved in 1 ml acetone and diluted with acetone to the desired concentration. 250 μl of the test solution is filled in 25 ml glass test tubes and homogeneously distributed on the inner walls by rotation and tilting on a shaking device (2 h at 30 rpm). With a compound concentration of 900 ppm, an inner surface of 44.7 cm^2 and a homogeneous distribution, a dose of 5 μg/cm^2 is achieved.
(§6) After the solvent has evaporated, each test tube is filled with 5-10 adult cat fleas (Ctenocephalides felis), closed with a perforated lid and incubated in a lying position at room temperature and relative humidity. After 48 hours efficacy is determined. The fleas are patted on the ground of the tubes and are incubated on a heating plate at 45-50° C. for at most 5 minutes. Immotile or uncoordinated moving fleas, which are not able to escape the heat by climbing upwards, are marked as dead or moribund.
An efficacy of 100% means all fleas are dead or moribund; 0% means no fleas are dead or moribund.

[9] = test system: green peach aphid (Myzus persicae); assay: Myzus persicae spray test (pepper leaves); format: in vivo; details: after 6 days
[10] = test system: two spotted spidermite (Tetranychus urticae); assay: Tetranychus urticae spray test OP-resistant (French bean leaf disks); format: in vivo; details: 100 g/ha, after 6 days
Protocol: Tetranychus urticae—Spray Test OP-Resistant
as §1, §2
French bean (Phaseolus vulgaris) leaf disks which are heavily infested with all stages of the two spotted spidermite (Tetranychus urticae) are sprayed with a preparation of the active ingredient of the desired concentration.
(§7) After 6 days mortality in % is determined.

[11] = test system: adult brown dog ticks (Rhipicephalus sanguineus); assay: Rhipicephalus sanguineus in-vitro contact test with adult brown dog ticks; format: in vivo; details: 5 μg/cm^2 (=500 g/ha), after 48 hours
Protocol: Rhipicephalus sanguineus—In-Vitro Contact Tests with Adult Brown Doe Ticks
as §5
as §6, with “brown dog ticks (Rhipicephalus sanguineus),” for “cat fleas (Ctenocephalides felis),”, “ticks” for “fleas”, “ticks,” for “fleas,”
An efficacy of 100% means all ticks are dead or moribund; 0% means no ticks are dead or moribund.

[12] = test system: larvae of the Australian sheep blowfly (Lucilia cuprina); assay: Lucilia cuprina test (LUCICU); format: in vivo; details: 100 ppm, after 2 days
Protocol: Lucilia cuprina—Test (LUCICU)
as §3
10 mg active compound are dissolved in 0.5 ml Dimethylsulfoxid. Serial dilutions are made to obtain the desired rates.
Approximately 20 […] instar larvae of the Australian sheep blowfly (Lucilia cuprina) are transferred into a test tube containing minced horse meat and compound solution of the desired concentration.

[13] = test system: green peach aphid (Myzus persicae); assay: Myzus persicae spray test (Chinese cabbage leaf disks); format: in vivo; details: 20 g/ha, after 6 days
Protocol: Myzus persicae—Spray Test
as §1, §2
Chinese cabbage (Brassica pekinensis) leaf disks infected with all instars of the green peach aphid (Myzus persicae), are sprayed with a preparation of the active ingredient of the desired concentration.
as §7

Q: Which logP [1] does the source give for CSc1c(C(F)(F)C(F)(F)F)nn(C)c1-n1cc(-c2ccc(C)c(C(=O)NC3CC3)c2)cn1 [Example I-17] here?
A: 3.64

Q: With Cc1ncc(-c2cnn(-c3c([S+](C)[O-])c(C(F)(F)C(F)(F)F)nn3C)c2)cc1C(=O)NC1CC1 (centres unmarked) [Example I-14] as the molecule, how does the logP [1] read?
A: 1.85

Q: Which chromatographic logP [1] does the source give for Cn1nc(C(F)(F)C(F)(F)F)c(N)c1-n1cc(Br)cn1 [Example 14, 4-bromo-2′-methyl-5′-(pentafluoroethyl)-2′H-1,3′-bipyrazol-4′-amine] here?
A: 2.68

Q: For CC[S+]([O-])c1c(C(F)(F)C(F)(F)F)nn(C)c1-n1cc(-c2ccc(Cl)c(C(=O)NC3(C#N)CC3)c2)cn1 (centres unmarked) [Example I-25], which logP [1] is on record?
A: 2.84

Q: What about the mortality in % ([2]; 4 ppm) of the same molecule?
A: 95%

Q: For Cn1nc(C(F)(F)C(F)(F)F)c(S(C)(=O)=O)c1-n1cc(-c2ccc(Cl)c(C(=O)NC3CC3)c2)cn1 [Example I-07], which mortality in % [3] is on record?
A: 100%

Q: What about the “efficacy (infertile eggs)” value [4] of the same molecule?
A: 100%

Q: What about the “efficacy (infertile eggs)” value [5] of the same molecule?
A: 100%

Q: What about the mortality in % [6] of the same molecule?
A: 100%

Q: And the mortality in % [7]?
A: 100%

Q: And the logP [1]?
A: 2.78

Q: What about the “efficacy (fleas dead or moribund)” value [8] of the same molecule?
A: 100%

Q: What does the source list for Cn1nc(C(F)(F)C(F)(F)F)c([S+](C)[O-])c1-n1cc(-c2ccc(Cl)c(C(=O)NC3CC3)c2)cn1 (centres unmarked) [Example I-06]?
A: mortality in % [3]: 100%; efficacy (infertile eggs) [4]: 100%; mortality in % ([9]; 20 ppm): 99%; mortality in % [10]: 90%; mortality in % [6]: 100%; logP [1]: 2.60; efficacy (fleas dead or moribund) [8]: 100%; mortality in % ([2]; 20 ppm): 90%

Q: What does the source list for CCSc1c(C(F)(F)C(F)(F)F)nn(C)c1-n1cc(-c2ccc(Cl)c(C(=O)NC3CC3)c2)cn1 [Example I-11]?
A: mortality in % [3]: 100%; efficacy (infertile eggs) [4]: 100%; efficacy (infertile eggs) [5]: 100%; mortality in % [6]: 100%; mortality in % [7]: 100%; logP [1]: 3.85

Q: Which “efficacy (infertile eggs)” value [4] does the source give for Cn1nc(C(F)(F)C(F)(F)F)c(S(C)(=O)=O)c1-n1cc(-c2ccc(Cl)c(C(=O)NC3(C#N)CC3)c2)cn1 [Example I-04] here?
A: 100%

Q: What about the mortality in % [6] of the same molecule?
A: 100%

Q: And the logP [1]?
A: 2.77

Q: With Cc1ccc(-c2cnn(-c3c([S+](C)[O-])c(C(F)(F)C(F)(F)F)nn3C)c2)cc1C(=O)NC1CC1 (centres unmarked) [Example I-18] as the molecule, how does the “efficacy (infertile eggs)” value [4] read?
A: 100%

Q: And the “efficacy (ticks dead or moribund)” value [11]?
A: 80%

Q: What about the logP [1] of the same molecule?
A: 2.57

Q: And the “efficacy (fleas dead or moribund)” value [8]?
A: 100%

Q: With Cc1ccc(-c2cnn(-c3c([S+](C)[O-])c(C(F)(F)C(F)(F)F)nn3C)c2)cc1C(=O)NC1(C#N)CC1 (centres unmarked) [Example I-24] as the molecule, how does the “efficacy (infertile eggs)” value [4] read?
A: 100%

Q: And the logP [1]?
A: 2.57

Q: With Cn1nc(C(F)(F)C(F)(F)F)c([S+](C)[O-])c1-n1cc(-c2ccc(Cl)c(C(=O)NC3(C#N)CC3)c2)cn1 (single isomer, unassigned) [Example I-08] as the molecule, how does the logP [1] read?
A: 2.59

Q: Which “efficacy (infertile eggs)” value [4] does the source give for Cn1nc(C(F)(F)F)c(S(C)(=O)=O)c1-n1cc(-c2ccc(Cl)c(C(=O)NC3CC3)c2)cn1 [Example I-05] here?
A: 100%

Q: What about the mortality in % [12] of the same molecule?
A: 90%

Q: And the mortality in % ([9]; 20 ppm)?
A: 100%

Q: And the logP [1]?
A: 2.34

Q: For Cn1nc(C(F)(F)C(F)(F)F)c([S+](C)[O-])c1-n1cc(-c2ccc(Cl)c(C(=O)NC3(C#N)CC3)c2)cn1 (racemic) [Example I-03], which “efficacy (infertile eggs)” value [4] is on record?
A: 100%

Q: And the mortality in % [6]?
A: 100%

Q: And the logP [1]?
A: 2.61

Q: And the “efficacy (fleas dead or moribund)” value [8]?
A: 100%

Q: Which logP [1] does the source give for CC[S+]([O-])c1c(C(F)(F)C(F)(F)F)nn(C)c1-n1cc(-c2ccc(Cl)c(C(=O)NC3CC3)c2)cn1 (centres unmarked) [Example I-22] here?
A: 2.88

Q: With CSc1c(C(F)(F)C(F)(F)F)nn(C)c1-n1cc(-c2cnc(Cl)c(C(=O)N(C)C3CC3)c2)cn1 [Example I-19] as the molecule, how does the logP [1] read?
A: 3.67

Q: For CSc1c(C(F)(F)C(F)(F)F)nn(C)c1-n1cc(-c2ccc(C)c(C(=O)NC3(C#N)CC3)c2)cn1 [Example I-16], which logP [1] is on record?
A: 3.55

Q: With CSc1c(C(F)(F)C(F)(F)F)nn(C)c1-n1cc(-c2ccc(Cl)c(C(=O)NC3CC3)c2)cn1 [Example I-12] as the molecule, how does the mortality in % [3] read?
A: 100%

Q: What about the “efficacy (infertile eggs)” value [4] of the same molecule?
A: 100%

Q: And the “efficacy (ticks dead or moribund)” value [11]?
A: 100%

Q: And the “efficacy (infertile eggs)” value [5]?
A: 100%

Q: What about the mortality in % [6] of the same molecule?
A: 100%

Q: What about the logP [1] of the same molecule?
A: 3.65

Q: And the “efficacy (fleas dead or moribund)” value [8]?
A: 100%

Q: Which logP [1] does the source give for Cc1ncc(-c2cnn(-c3c([S+](C)[O-])c(C(F)(F)C(F)(F)F)nn3C)c2)cc1C(=O)NC1(C#N)CC1 (centres unmarked) [Example I-10] here?
A: 1.99

Q: For Cn1nc(C(F)(F)C(F)(F)F)c([S+](C)[O-])c1-n1cc(-c2ccc(Cl)c(C(=O)NC3(C#N)CC3)c2)cn1 (single isomer, unassigned) [Example I-21], which logP [1] is on record?
A: 2.59

Q: For CSc1c(C(F)(F)C(F)(F)F)nn(C)c1-n1cc(Br)cn1 [Example 15, 4-bromo-2′-methyl-4′-(methylsulfanyl)-5′-(pentafluoroethyl)-2′H-1,3′-bipyrazole], which chromatographic logP [1] is on record?
A: 3.95

Q: Which results are given for CCSc1c(C(F)(F)C(F)(F)F)nn(C)c1-n1cc(-c2ccc(Cl)c(C(=O)NC3(C#N)CC3)c2)cn1 [Example I-15]?
A: mortality in % [3]: 100%; efficacy (infertile eggs) [4]: 100%; efficacy (ticks dead or moribund) [11]: 100%; efficacy (infertile eggs) [5]: 100%; mortality in % [6]: 90%; mortality in % [7]: 100%; logP [1]: 3.76; efficacy (fleas dead or moribund) [8]: 100%

Q: Which results are given for Cn1nc(C(F)(F)C(F)(F)F)c([S+](C)[O-])c1-n1cc(-c2cnc(Cl)c(C(=O)NC3(C#N)CC3)c2)cn1 (centres unmarked) [Example I-20]?
A: efficacy (infertile eggs) [4]: 100%; mortality in % ([9]; 4 ppm): 95%; mortality in % [6]: 90%; logP [1]: 2.23

Q: With Cn1nc(C(F)(F)F)c([S+](C)[O-])c1-n1cc(-c2ccc(Cl)c(C(=O)NC3(C#N)CC3)c2)cn1 (centres unmarked) [Example I-01] as the molecule, how does the logP [1] read?
A: 2.16

Q: What about the mortality in % ([2]; 20 ppm) of the same molecule?
A: 100%

Q: Which results are given for Cc1ccc(-c2cnn(-c3c(S(C)(=O)=O)c(C(F)(F)C(F)(F)F)nn3C)c2)cc1C(=O)NC1CC1 [Example I-09]?
A: efficacy (infertile eggs) [4]: 100%; mortality in % [12]: 90%; efficacy (infertile eggs) [5]: 80%; mortality in % [6]: 80%; logP [1]: 2.75; efficacy (fleas dead or moribund) [8]: 100%

Q: With Cc1ccc(-c2cnn(-c3c(S(C)(=O)=O)c(C(F)(F)C(F)(F)F)nn3C)c2)cc1C(=O)NC1(C#N)CC1 [Example I-23] as the molecule, how does the “efficacy (infertile eggs)” value [4] read?
A: 100%

Q: What about the mortality in % [13] of the same molecule?
A: 100%

Q: What about the logP [1] of the same molecule?
A: 2.79

From patent publication US9936699B2, “Halogen-substituted compounds” (BAYER CROPSCIENCE AKTIENGESELLSCHAFT, priority 2014, dated 2018)
